Data as given in patent publication US20080221020A1, “Dendrimers as Molecular Translocators” (THE REGENTS OF THE UNIVERSITY OF CALIFORNIA, priority 2002, published 2008).

Columns and labels:
[1] = tested on: HeLa S3 human epithelioid cervical carcinoma cells; assay: Cellular uptake of fluorescein-labeled dendrimers, quantified by flow cytometry (FACS); format: cell-based; details: for Percentage of Cellular Uptake: 4 hours after treatment, 37° C., average of two experiments; for saturation of uptake into cells: with increasing transporter concentration; for delivery to HeLa S3 cells: qualitative
Protocol: HeLa S3, human epithelioid cervical carcinoma cells of approximately 50% confluency were treated with concentrations varying from 250 nM to 50 μM of each of the molecular transporters 10, 11, 12, 13, and 41 at 37° C. The molecular transporters were directly added to the media (Dulbecco's modified eagle medium containing 10% fetal bovine serum and 1× antibiotic-antimycotic), and the delivery to the cells was visualized by microscopy.
Quantification of the uptake of the molecular transporter into the cells was performed by flow cytometry 4 hours after treatment. Adherent cells, grown on 6 well plates, were displaced with trypsin, after which the cells were washed with phosphate-buffered saline (PBS). The final cell pellet was collected by centrifugation and resuspended in PBS to a concentration of approximately 1×10^6 cells/mL. A minimum of 20,000 cell events were counted and analyzed using the FACSCalibur and CellQuest brand software (BD Biosciences, San Jose, Calif.).

HeLa S3 cells = assay: Sulphorhodamine B (SRB) cytotoxicity assay; format: cell-based, human; details: 4 hour treatment, concentrations up to 50 μM
Protocol: The cells were treated with varying concentrations (250 nM to 50 μM) of compound 12 for 4 hours at 37° C. The cells were fixed with trichloroacetic acid and were then subsequently stained with SRB dye. The cells were washed with water, and the SRB-bound complexes were solubilized in Tris buffer. The absorbance at 572 nm was measured in each sample.

[2] = Solubility in water observed on isolation; format: physicochemical; details: isolated salt

Compound: Cl.Cl.Cl.N=C(N)NCCNC(=O)CCOCC(COCCC(=O)NCCNC(=N)N)(COCCC(=O)NCCNC(=N)N)NC(=O)CCNC(=S)Nc1ccc(-c2c3ccc(=O)cc-3oc3cc(O)ccc23)c(C(=O)O)c1 (stereo not shown) [Compound 10]
- Percentage of Cellular Uptake ([1]; 250 nM): 1.845%
- Percentage of Cellular Uptake ([1]; 500 nM): 2.89%
- Percentage of Cellular Uptake ([1]; 1 μM): 2.85%
- Percentage of Cellular Uptake ([1]; 5 μM): 12.44%
- Percentage of Cellular Uptake ([1]; 10 μM): 27.91%
- Percentage of Cellular Uptake ([1]; 25 μM): 59.15%
- Percentage of Cellular Uptake ([1]; 50 μM): 92.07%
- saturation of uptake into cells [1]: approximately 100%

Compound: Cl.Cl.Cl.Cl.Cl.Cl.N=C(N)NCCNC(=O)CCOCC(COCCC(=O)NCCNC(=N)N)(COCCC(=O)NCCNC(=N)N)NC(=O)CCNC(=O)c1cc(C(=O)NCCNC(=O)CCNC(=S)Nc2ccc(-c3c4ccc(=O)cc-4oc4cc(O)ccc34)c(C(=O)O)c2)cc(C(=O)NCCC(=O)NC(COCCC(=O)NCCNC(=N)N)(COCCC(=O)NCCNC(=N)N)COCCC(=O)NCCNC(=N)N)c1 (stereo not shown) [Compound 11]
- delivery to HeLa S3 cells [1]: excellent delivery
- saturation of uptake into cells [1]: approximately 100%

Compound: Cl.Cl.Cl.Cl.Cl.Cl.Cl.Cl.Cl.N=C(N)NCCNC(=O)CCOCC(COCCC(=O)NCCNC(=N)N)(COCCC(=O)NCCNC(=N)N)NC(=O)CCNC(=O)CCOCC(COCCC(=O)NCCC(=O)NC(COCCC(=O)NCCNC(=N)N)(COCCC(=O)NCCNC(=N)N)COCCC(=O)NCCNC(=N)N)(COCCC(=O)NCCC(=O)NC(COCCC(=O)NCCNC(=N)N)(COCCC(=O)NCCNC(=N)N)COCCC(=O)NCCNC(=N)N)NC(=O)CCNC(=S)Nc1ccc(-c2c3ccc(=O)cc-3oc3cc(O)ccc23)c(C(=O)O)c1 (stereo not shown) [Compound 12]
- delivery to HeLa S3 cells [1]: excellent delivery
- saturation of uptake into cells [1]: approximately 100%
- cell lysis (HeLa S3 cells): did not cause cell lysis
- cytotoxic effect (HeLa S3 cells): no cytotoxic effect

Compound: Cl.Cl.Cl.Cl.Cl.Cl.Cl.Cl.Cl.Cl.Cl.Cl.N=C(N)NCCNC(=O)CCOCC(COCCC(=O)NCCNC(=N)N)(COCCC(=O)NCCNC(=N)N)NC(=O)CCNC(=O)CCOCC(COCCC(=O)NCCC(=O)NC(COCCC(=O)NCCNC(=N)N)(COCCC(=O)NCCNC(=N)N)COCCC(=O)NCCNC(=N)N)NC(=O)CCNC(=O)CCOCC(COCCC(=O)NCCC(=O)NC(COCCC(=O)NCCC(=O)NC(COCCC(=O)NCCNC(=N)N)(COCCC(=O)NCCNC(=N)N)COCCC(=O)NCCNC(=N)N)COCCC(=O)NCCC(=O)NC(COCCC(=O)NCCNC(=N)N)(COCCC(=O)NCCNC(=N)N)COCCC(=O)NCCNC(=N)N)NC(=O)CCNC(=S)Nc1ccc(-c2c3ccc(=O)cc-3oc3cc(O)ccc23)c(C(=O)O)c1 (stereo not shown) [Compound 13]
- delivery to HeLa S3 cells [1]: excellent delivery
- saturation of uptake into cells [1]: approximately 100%

Compound: N=C(N)NCCNC(=O)CCCCCNC(=O)CCNC(=S)Nc1ccc(-c2c3ccc(=O)cc-3oc3cc(O)ccc23)c(C(=O)O)c1 [Compound 41, 5-(3-{2-[5-(2-Guanidinoethylcarbamoyl)-pentylcarbamoyl]-ethyl}-thioureido)-2-(6-hydroxy-3-oxo-3H-xanthen-9-yl)-benzoic acid]
- solubility in H2O [2]: barely soluble in H2O
- Percentage of Cellular Uptake ([1]; 250 nM): 1.95%
- Percentage of Cellular Uptake ([1]; 500 nM): 2.065%
- Percentage of Cellular Uptake ([1]; 1 μM): 3.025%
- Percentage of Cellular Uptake ([1]; 5 μM): 16.07%
- Percentage of Cellular Uptake ([1]; 10 μM): 32.4%
- Percentage of Cellular Uptake ([1]; 25 μM): 67.47%
- Percentage of Cellular Uptake ([1]; 50 μM): 86.71%
- saturation of uptake into cells [1]: approximately 100%
